The source of these data is patent US4843087A (priority 1986, dated 1989).

Values after ≈ are worked out from the molar mass of the structure shown.

Assay [1] concerns human rhinovirus (HRV) serotypes. Put plainly: microbe, parasite or virus in culture. In kind it is cell-based. The conditions noted are these: for MIC50: read-out: Rhinovirus MIC50; for IC (MIC80 of serotype panel): read-out: Rhinovirus MIC80.
Assay [2] has as its system Polio 2. Put plainly: microbe, parasite or virus in culture. Format: cell-based, poliovirus. The conditions noted are these: Enterovirus C, HeLa, read-out: Polio 2 MIC.

With `Cc1cc(CCCCCCOc2ccc(C3=NCCO3)cc2)on1` [14(b), 5-{6-[4-(4,5-Dihydro-2-oxazolyl)phenoxy]hexyl}-3-methylisoxazole], in assay [1], the MIC50 is 0.8 µg/mL (≈ 2.44 µM) and the IC (MIC80 of serotype panel) came out at 25.5 µg/mL. Also, the MIC in assay [2] came to 0.017 µg/mL (≈ 0.0518 µM).
Taken in the same sequence, the figures for `Cc1cc(CCCCCCCOc2ccc(C3=NCCO3)cc2F)on1` [19(b), 5-{7-[4-(4,5-Dihydro-2-oxazolyl)-2-fluorophenoxy]heptyl}-3-methylisoxazole] were 0.8 µg/mL (≈ 2.22 µM), 99 µg/mL and 0.3 µg/mL (≈ 0.832 µM).
In the case of `Cc1noc(CCCCCCCOc2ccc(C3=NCCO3)cc2)c1CO` [29(b), 5-{7-[4-(4,5-Dihydro-2-oxazolyl)phenoxy]heptyl}-3-methyl-4-isoxazolemethanol], in assay [1], the MIC50 was 1.25 µg/mL (≈ 3.34 µM) and the IC (MIC80 of serotype panel) came to 1.7 µg/mL. The MIC in assay [2] came to 0.02 µg/mL (≈ 0.0537 µM).
For `Cc1cc(CCCCCCCOc2ccc(C3=NCCO3)cc2C)on1` [31(b), 5-{7-[4-(4,5-Dihydro-2-oxazolyl)-2-methylphenoxy]heptyl}-3-methylisoxazole] the same measures were 0.15 µg/mL (≈ 0.421 µM), 0.56 µg/mL and 0.36 µg/mL (≈ 1.01 µM).
For `Cc1cc(CCCCCCCOc2ccc(C3=NCC(C)O3)cc2)on1` (stereo not drawn) [34(b), 5-{7-[4-(4,5-Dihydro-5-methyl-2-oxazolyl)phenoxy]heptyl}-3-methylisoxazole] the same measures were 0.2 µg/mL (≈ 0.561 µM), 26.5 µg/mL and 0.49 µg/mL (≈ 1.37 µM).
Consider `Cc1cc(CCCCCCCOc2ccc(C3=NCCO3)c(C)c2)on1` [38(b), 5-{7-[4-(4,5-Dihydro-2-oxazolyl)-3-methylphenoxy]heptyl}-3-methylisoxazole], for which, in assay [1], the MIC50 stood at 0.69 µg/mL (≈ 1.94 µM) and the IC (MIC80 of serotype panel) came to 0.9 µg/mL. The MIC in assay [2] amounted to 0.3 µg/mL (≈ 0.842 µM).
For `COc1cc(C2=NCCO2)ccc1OCCCCCCCc1cc(C)no1` [41(b), 5-{7-[4-(4,5-Dihydro-2-oxazolyl)-2-methoxyphenoxy]heptyl}-3-methylisoxazole] the same measures were 0.55 µg/mL (≈ 1.48 µM), 4 µg/mL and 1 µg/mL (≈ 2.68 µM).
For `Cc1cc(CCCCCOc2ccc(-c3nc(C)c(C)o3)cc2)on1` [89(d), 5-{5-[4-(4,5-Dimethyl-2-oxazolyl)phenoxy]pentyl}-3-methylisoxazole] the same measures were 0.19 µg/mL (≈ 0.558 µM), 0.77 µg/mL and 0.16 µg/mL (≈ 0.47 µM).
Taken in the same sequence, the figures for `Cc1cc(CCCCCOc2ccc(-c3ncc(C)o3)cc2)on1` [93(f), 3-Methyl-5-{5-[4-(5-methyl-2-oxazolyl)phenoxy]pentyl}-isoxazole] were 0.09 µg/mL (≈ 0.276 µM), 1.3 µg/mL and 0.09 µg/mL (≈ 0.276 µM).
For `Cc1cc(CCCCCCCOc2ccc(C3=NCCCO3)cc2)on1` [94(c), 5,6-Dihydro-2-{4-[7-(3-methyl-5-isoxazolyl)heptyloxy]phenyl}-4H-1,3-oxazine], in assay [1], the MIC50 was determined as 1.06 µg/mL (≈ 2.97 µM) and the IC (MIC80 of serotype panel) is 99 µg/mL. In assay [2], the MIC is 0.8 µg/mL (≈ 2.24 µM).
For the compound `Cc1cc(CCCCCOc2c(C)cc(-c3cnco3)cc2C)on1` [97(b), 5-{5-[2,6-Dimethyl-4-(5-oxazolyl)phenoxy]pentyl}-3-methylisoxazole], in assay [1], the MIC50 came to 0.135 µg/mL (≈ 0.397 µM) and the IC (MIC80 of serotype panel) amounted to 0.76 µg/mL. For the same compound, the MIC in assay [2] is 5.4 µg/mL (≈ 15.9 µM).
For `Cc1cc(CCCCCSc2ccc(C3=NCCO3)cc2)on1` [103(c), 5-{5-[[4-(4,5-Dihydro-2-oxazolyl)phenyl]thio]pentyl}-3-methylisoxazole] the same measures were 0.57 µg/mL (≈ 1.72 µM), 27.1 µg/mL and 0.37 µg/mL (≈ 1.12 µM).
For `Cc1cc(CCCCCOc2c(Cl)cc(C(=O)NCCCl)cc2Br)on1` [152(c), 3-Bromo-5-chloro-N-(2-chloroethyl)-4-{[5-(3-methyl-5-isoxazolyl)pentyl]oxy}benzamide] the same measures were 0.14 µg/mL (≈ 0.302 µM), 0.6 µg/mL and 2.1 µg/mL (≈ 4.52 µM).
`Cc1cc(CCCCCOc2c(Cl)cc(C3=NCCO3)cc2Br)on1` [152(d), 5-{5-[2-Bromo-6-chloro-4-(4,5-dihydro-2-oxazolyl)phenoxy]pentyl}-3-methylisoxazole]: in assay [1], the MIC50 amounted to 0.095 µg/mL (≈ 0.222 µM) and the IC (MIC80 of serotype panel) amounted to 0.23 µg/mL. In assay [2], the MIC came out at 0.97 µg/mL (≈ 2.27 µM).
For `Cc1cc(CCCCCOc2c(Cl)cc(C(=O)NCCCl)cc2[N+](=O)[O-])on1` [153(c), 3-Chloro-N-(2-chloroethyl)-4-{[5-(3-methyl-5-isoxazolyl)pentyl]oxy}-5-nitrobenzamide], in assay [1], the MIC50 turned out to be 0.08 µg/mL (≈ 0.186 µM) and the IC (MIC80 of serotype panel) was 0.23 µg/mL. In addition, the MIC in assay [2] worked out at 0.86 µg/mL (≈ 2 µM).
With `Cc1cc(CCCCCOc2c(Cl)cc(C3=NCCO3)cc2[N+](=O)[O-])on1` [153(d), 5-{5-[2-Chloro-4-(4,5-dihydro-2-oxazolyl)-6-nitrophenoxy]pentyl}-3-methylisoxazole], in assay [1], the MIC50 is 0.09 µg/mL (≈ 0.229 µM) and the IC (MIC80 of serotype panel) is 0.18 µg/mL. Further, in assay [2], the MIC stood at 0.4 µg/mL (≈ 1.02 µM).
`Cc1cc(CCCCCOc2c(C)cc(C(=O)NCCCl)cc2Cl)on1` [154(b), 3-Chloro-N-(2-chloroethyl)-5-methyl-4 -{[5-(3-methyl-5-isoxazolyl)pentyl]oxy}benzamide]: in assay [1], the MIC50 turned out to be 0.17 µg/mL (≈ 0.426 µM) and the IC (MIC80 of serotype panel) came to 0.63 µg/mL. The MIC in assay [2] is 1.13 µg/mL (≈ 2.83 µM).
Regarding `Cc1cc(CCCCCOc2c(C)cc(C3=NCCO3)cc2Cl)on1` [154(c), 5-{5-[2-Chloro-4-(4,5-dihydro-2-oxazolyl)-6-methylphenoxy]pentyl}-3-methylisoxazole], in assay [1], the MIC50 was 0.22 µg/mL (≈ 0.606 µM) and the IC (MIC80 of serotype panel) worked out at 0.33 µg/mL. The MIC in assay [2] came to 0.8 µg/mL (≈ 2.2 µM).
For `CCc1cc(C(=O)NCCCl)cc(C)c1OCCCCCc1cc(C)no1` [157(c), N-(2-Chloroethyl)-3-ethyl-5-methyl-4-{[5-(3-methyl-5-isoxazolyl)pentyl]oxy}benzamide] the same measures were 0.49 µg/mL (≈ 1.25 µM), 1.2 µg/mL and 2.1 µg/mL (≈ 5.34 µM).
With `CCc1cc(C2=NCCO2)cc(C)c1OCCCCCc1cc(C)no1` [157(d), 5-{5-[4-(4,5-Dihydro-2-oxazolyl)-2-ethyl-6-methylphenoxy]pentyl}-3-methylisoxazole], in assay [1], the MIC50 came out at 1.25 µg/mL (≈ 3.51 µM) and the IC (MIC80 of serotype panel) was found to be 2.5 µg/mL. Moreover, the MIC in assay [2] was determined as 3.3 µg/mL (≈ 9.26 µM).
Taken in the same sequence, the figures for `COc1cc(C(=O)NCCCl)cc(OC)c1OCCCCCc1cc(C)no1` [158(b), N-(2-Chloroethyl)-3,5-dimethoxy-4-{[5-(3-methyl-5-isoxazolyl)pentyl]oxy}benzamide] were 1.73 µg/mL (≈ 4.21 µM), 4.7 µg/mL and 2 µg/mL (≈ 4.87 µM).
For `COc1cc(C2=NCCO2)cc(OC)c1OCCCCCc1cc(C)no1` [158(d), 5-{5-[4-(4,5-Dihydro-2-oxazolyl)-2,6-dimethoxyphenoxy]pentyl}-3-methylisoxazole] the same measures were 2.1 µg/mL (≈ 5.61 µM), 5 µg/mL and 1 µg/mL (≈ 2.67 µM).
For `Cc1cc(CCCCCOc2c(F)cc(C3=NCCO3)cc2F)on1` [159(c), 5-{5-[4-(4,5-Dihydro-2-oxazolyl)-2,6-difluorophenoxy]-pentyl}-3-methylisoxazole] the same measures were 0.15 µg/mL (≈ 0.428 µM), 0.66 µg/mL and 0.12 µg/mL (≈ 0.342 µM).
